*1 amine or outer side, *2 acyl side, *3 side chain or, on linkers, in order; H or OH if unused. Where a SMILES comes first, the peptide text is derived from it. Bridges are numbered along the chain shown (N, C = ends). [ ]: non-standard residue; d: D form. 2Nal = N[C@@H](Cc1ccc2ccccc2c1)C(=O)O; AEF = NCCOc1ccc(C[C@H](N)C(=O)O)cc1; X1 = O=C(Cc1ccc(CN[*:1])cc1)[*:2]; 3Pal = N[C@@H](Cc1cccnc1)C(=O)O; αMeL = CC(C)C[C@](C)(N)C(=O)O; CH2COCH2 = O=C(C[*:1])C[*:2]; 3Amb = NCc1cccc(C(=O)O)c1; Dab = NCC[C@H](N)C(=O)O
Legend:
human IL-23R = biological target: T1, human IL-23R (Homo sapiens, UniProt Q5VWK5); assay: Binding assay: displacement of fluorophore (TAMRA)-labelled reference compound from human IL-23R (BRET, Nluc-IL23R fusion protein membranes); settings: for Emax: read-out: % displacement (hIL-23R binding)
T1 construct: Nanoluc luciferase (Nluc); secretion signal encoded by the plasmid (not specified); expressed in transfected cells; crude membranes used in the assay
T1 sequence (Q5VWK5 22-629): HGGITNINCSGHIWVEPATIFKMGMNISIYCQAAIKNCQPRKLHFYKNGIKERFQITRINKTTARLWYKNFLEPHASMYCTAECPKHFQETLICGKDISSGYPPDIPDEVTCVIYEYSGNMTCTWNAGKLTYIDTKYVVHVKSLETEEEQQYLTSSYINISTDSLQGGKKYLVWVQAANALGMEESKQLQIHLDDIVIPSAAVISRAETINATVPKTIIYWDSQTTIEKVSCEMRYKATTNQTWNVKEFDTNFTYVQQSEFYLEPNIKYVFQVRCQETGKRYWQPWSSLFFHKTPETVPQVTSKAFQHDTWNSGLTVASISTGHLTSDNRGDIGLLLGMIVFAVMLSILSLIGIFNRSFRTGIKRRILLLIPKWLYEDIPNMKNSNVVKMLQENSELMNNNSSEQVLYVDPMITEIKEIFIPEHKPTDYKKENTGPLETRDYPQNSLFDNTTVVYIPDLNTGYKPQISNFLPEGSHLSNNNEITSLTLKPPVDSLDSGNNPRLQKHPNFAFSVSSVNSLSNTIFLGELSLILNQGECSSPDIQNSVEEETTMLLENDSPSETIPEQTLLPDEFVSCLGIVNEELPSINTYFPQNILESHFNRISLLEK

[1] = system: IL-23 mediated STAT3 signalling (DB cells); assay: Functional inhibition of IL-23 mediated STAT3 signalling (phospho-STAT3 Tyr705) in DB cells; type: cell-based, human; settings: for hIL-23 (pSTAT3) antagonist % inhibition: Table 3-2, maximal inhibitory response, EC80 of hIL-23; for IC50: Table 3-2, EC80 of hIL-23, read-out: hIL-23 (pSTAT3) antagonist IC50
Description: Upon binding of IL-23, the IL-23R forms a heterodimer signalling complex together with IL-12R β1, which through the JAK2/STAT3 pathway promotes phosphorylation of STAT3 to form phospho-STAT3.
For compounds tested in this assay, the response was normalized relative to control values to calculate the IC50 and maximal inhibitory response from a concentration response curve of the compound in presence of a fixed concentration of human IL-23.
The assay procedure was as follows. […] Following preincubation of the DB cells with inhibitor for 15 min in a cell incubator (37° C., 5% CO2), 20 μL of the prepared 3× the EC80 of hIL-23 solution was added to each well and incubated for 90 min in a cell incubator (37° C., 5% CO2). For some wells buffer only or IL-23 only corresponding to the EC80 was added to obtain readouts needed for normalization. To terminate the assay, the plate was spun at 1000 G for 5 min to pellet cells, the supernatant removed using an 8-channel manual pipette, and then added 50 μL/well Complete Lysis Buffer from the MSD STAT3 kit (Cat #K150SVD, Mesoscale) to the cell pellet. To completely lyse cells to release phospho-STAT3 for detection, the plate was shaken for 10 min at room temperature (500 rpm) sealed with aluminium foil and placed at −80° C. for a minimum of 15 min. Detection of the phospho-STAT3 level in the cell lysate from the individual wells was determined using the MSD STAT3 kit (Cat #K150SVD, Mesoscale) and read on a Meso QuickPlex SQ 120 plate reader (Mesoscale).
For data analysis raw data counts from the Meso QuickPlex SQ 120 plate reader were normalized relative to the response by the EC80 of hIL-23 alone (no compound added) and the buffer level.

SMILES	IC50 (human IL-23R) [nM]	hIL-23 (pSTAT3) antagonist % inhibition [1] [%]	Emax (human IL-23R) [%]	IC50 [1] [nM]
CNC(=O)[C@H](Cc1cccnc1)NC(=O)[C@H](CCN)NC(=O)[C@@H]1CCC(=O)NCc2ccc(cc2)CC(=O)N[C@@H](CO)C(=O)N[C@H]2CCC(=O)NCC[C@H](NC(=O)[C@H](C)NC(=O)[C@H](Cc3c[nH]c4ccccc34)NC2=O)C(=O)N[C@@H](Cc2ccc(OCCN)cc2)C(=O)N[C@@H](Cc2ccc3ccccc3c2)C(=O)N[C@@](C)(CC(C)C)C(=O)N1 [Compound 22, [4-Aminomethyl-phenylacetyl](1c)*SE(2c)WA[Dab](2c)[Y(2-aminoethoxy)][2-Nal][2-Me-Leu]E(1c)[Dab][3-(3-Pyridyl)-Ala]-[NHMe]] ([X1]SEWA[Dab][AEF][2Nal][αMeL]E[Dab][3Pal]-NHMe; lactam 3-6, N-10)	0.035	101		
CC(C)C[C@]1(C)NC(=O)[C@H](Cc2ccc3ccccc3c2)NC(=O)[C@H](Cc2ccc(OCCN)cc2)NC(=O)[C@@H]2CSCC(=O)CSC[C@H](NC(=O)[C@H](CO)NC(=O)c3cccc(c3)CNC(=O)CC[C@@H](C(=O)N[C@H](CCCNC(=N)N)C(N)=O)NC1=O)C(=O)N[C@@H](Cc1c[nH]c3ccccc13)C(=O)N[C@@H](CCC(N)=O)C(=O)N2 [Ref 41, [(3-Aminomethyl)benzoyl](1c)*SC(2a)WQC(2a)[Y(2-aminoethoxy)][2-Nal][2-Me-Leu]E(1c)[{d}R]-[NH2], reference compound] ([3Amb]SCWQC[AEF][2Nal][αMeL]E[dR]-NH2; linker 3-6 via CH2COCH2; lactam N-10)		99	110	29
CC(C)C[C@]1(C)NC(=O)[C@H](Cc2ccc3ccccc3c2)NC(=O)[C@H](Cc2ccc(OCCN)cc2)NC(=O)[C@@H]2CSCC(=O)CSC[C@H](NC(=O)[C@H](CO)NC(=O)Cc3ccc(cc3)CNC(=O)CC[C@@H](C(=O)N[C@@H](CO)C(N)=O)NC1=O)C(=O)N[C@@H](Cc1c[nH]c3ccccc13)C(=O)N[C@@H](CCC(N)=O)C(=O)N2 [Ref 81, [4-Aminomethyl-phenylacetyl](1c)*SC(2a)WQC(2a)[Y(2-aminoethoxy)][2-Nal][2-Me-Leu]E(1c)S-[NH2], reference compound]		95	101	21
CNC(=O)[C@H](Cc1cncnc1)NC(=O)[C@H](CCN)NC(=O)[C@@H]1CCC(=O)NCc2ccc(cc2)CC(=O)N[C@@H](CO)C(=O)N[C@H]2CCC(=O)NCC[C@H](NC(=O)[C@H](CCC(N)=O)NC(=O)[C@H](Cc3c[nH]c4ccccc34)NC2=O)C(=O)N[C@@H](Cc2ccc(OCCN)cc2)C(=O)N[C@@H](Cc2ccc3ccccc3c2)C(=O)N[C@@](C)(CC(C)C)C(=O)N1 [Compound 19, [4-Aminomethyl-phenylacetyl](1c)*SE(2c)WQ[Dab](2c)[Y(2-aminoethoxy)][2-Nal][2-Me-Leu]E(1c)[Dab][3-(3,5-Pyrimidyl)-Ala]-[NHMe]]		100	103	0.16
CC(=O)N[C@H]1CCCCNC(=O)CC[C@@H](C(=O)N[C@@H](CCN)C(=O)N[C@@H](Cc2cccnc2)C(N)=O)NC(=O)[C@](C)(CC(C)C)NC(=O)[C@H](Cc2ccc3ccccc3c2)NC(=O)[C@H](Cc2ccc(OCCN)cc2)NC(=O)[C@@H]2CSCC(=O)CSC[C@H](NC(=O)[C@H]([C@@H](C)O)NC1=O)C(=O)N[C@@H](Cc1c[nH]c3ccccc13)C(=O)N[C@@H](CCC(N)=O)C(=O)N2 [Ref 155, [Ac]-K(1c)TC(2a)WQC(2a)[Y(2-aminoethoxy)][2-Nal][2-Me-Leu]E(1c)[Dab][3-(3-Pyridyl)-Ala]-[NH2], reference compound] (Ac-KTCWQC[AEF][2Nal][αMeL]E[Dab][3Pal]-NH2; lactam 1-10; linker 3-6 via CH2COCH2)		100	97	
CC(C)C[C@@H]1NC(=O)[C@H](Cc2c[nH]c3ccccc23)NC(=O)[C@H](Cc2c[nH]c3ccccc23)NC(=O)[C@@H]2CSCC(=O)CSC[C@H](NC(=O)[C@H](CO)NC(=O)[C@@H](NC(=O)[C@@H](N)CC(=O)O)CCC(=O)NCCCC[C@@H](C(=O)N[C@@H](CCCNC(=N)N)C(N)=O)NC1=O)C(=O)N[C@@H](Cc1c[nH]c3ccccc13)C(=O)N[C@@H](CCC(N)=O)C(=O)N2 [Ref 4, H-DE(1c)SC(2a)WQC(2a)WWLK(1c)R-[NH2], reference compound] (HELM PEPTIDE1{D.E.S.C.W.Q.C.W.W.L.K.R.[am]}|CHEM1{[O=C(C[*:1])C[*:2]]}$PEPTIDE1,PEPTIDE1,2:R3-11:R3|PEPTIDE1,CHEM1,4:R3-1:R1|PEPTIDE1,CHEM1,7:R3-1:R2$$$V2.0)		87	100	850
CC(C)C[C@]1(C)NC(=O)[C@H](Cc2ccc3ccccc3c2)NC(=O)[C@H](Cc2ccc(OCCN)cc2)NC(=O)[C@@H]2CSCC(=O)CSC[C@H](NC(=O)[C@H](CO)NC(=O)Cc3ccc(cc3)CNC(=O)CC[C@@H](C(=O)N[C@@H](CCN)C(N)=O)NC1=O)C(=O)N[C@@H](Cc1c[nH]c3ccccc13)C(=O)N[C@@H](CCC(N)=O)C(=O)N2 [Ref 82, [4-Aminomethyl-phenylacetyl](1c)*SC(2a)WQC(2a)[Y(2-aminoethoxy)][2-Nal][2-Me-Leu]E(1c)[Dab]-[NH2], reference compound] ([X1]SCWQC[AEF][2Nal][αMeL]E[Dab]-NH2; linker 3-6 via CH2COCH2; lactam N-10)		97	103	11
CNC(=O)[C@H](Cc1cccnc1)NC(=O)[C@H](CCN)NC(=O)[C@@H]1CCC(=O)NCc2ccc(cc2)CC(=O)N[C@@H](C)C(=O)N[C@H]2CCC(=O)NCC[C@H](NC(=O)[C@H](CCC(N)=O)NC(=O)[C@H](Cc3c[nH]c4ccccc34)NC2=O)C(=O)N[C@@H](Cc2ccc(N3CCOCC3)cc2)C(=O)N[C@@H](Cc2ccc3ccccc3c2)C(=O)NC(C)(C)C(=O)N1 [Compound 51, [4-aminomethyl-phenylacetyl](1c)*AE(2c)WQ[Dab](2c)[F(4-morpholine)][2Nal][Aib]E(1c)[Dab][3-(3-Pyridyl)-alanyl]-[NHMe]]	0.073	96	105	0.38
CC(C)C[C@]1(C)NC(=O)[C@H](Cc2ccc3ccccc3c2)NC(=O)[C@H](Cc2ccc(OCCN)cc2)NC(=O)[C@@H]2CCNC(=O)CC[C@H](NC(=O)[C@H](CO)NC(=O)Cc3ccc(cc3)CNC(=O)CC[C@@H](C(=O)NCC[C@H](N)C(=O)N[C@@](C)(Cc3cccnc3)C(N)=O)NC1=O)C(=O)N[C@@H](Cc1c[nH]c3ccccc13)C(=O)N[C@@H](CCC(N)=O)C(=O)N2 [Compound 15, [4-Aminomethyl-phenylacetyl](1c)*SE(2c)WQ[Dab](2c)[Y(2-aminoethoxy)][2-Nal][2-Me-Leu]E(1c)[Iso-Dab][2-Me-3-(3-Pyridyl)-Ala]-[NH2]]		97	96	12
CC(C)C[C@]1(C)NC(=O)[C@H](Cc2ccc3ccccc3c2)NC(=O)[C@H](Cc2ccc(OCCN)cc2)NC(=O)[C@@H]2CSCC(=O)CSC[C@H](NC(=O)[C@H](CO)NC(=O)Cc3ccc(cc3)CNC(=O)CC[C@@H](C(=O)N[C@@H](CCCNC(=N)N)C(N)=O)NC1=O)C(=O)N[C@@H](Cc1c[nH]c3ccccc13)C(=O)N[C@@H](CCC(N)=O)C(=O)N2 [Ref 52, [4-Aminomethyl-phenylacetyl](1c)*SC(2a)WQC(2a)[Y(2-aminoethoxy)][2-Nal][2-Me-Leu]E(1c)R-[NH2], reference compound] ([X1]SCWQC[AEF][2Nal][αMeL]ER-NH2; linker 3-6 via CH2COCH2; lactam N-10)		103	100	7.8
